Broadly, the Kd is the equilibrium constant for the complex coming apart. Higher therefore signals a looser complex.

Each structure is given as a SMILES string. A value given as a limit tells only on which side of the number the result lay.

One experiment has as its target T1, RARβ (Homo sapiens, UniProt P10826).
T1 construct: expressed in transfected cells; host or cells: CV1
T1 sequence (P10826 1-448 isoform P10826-2): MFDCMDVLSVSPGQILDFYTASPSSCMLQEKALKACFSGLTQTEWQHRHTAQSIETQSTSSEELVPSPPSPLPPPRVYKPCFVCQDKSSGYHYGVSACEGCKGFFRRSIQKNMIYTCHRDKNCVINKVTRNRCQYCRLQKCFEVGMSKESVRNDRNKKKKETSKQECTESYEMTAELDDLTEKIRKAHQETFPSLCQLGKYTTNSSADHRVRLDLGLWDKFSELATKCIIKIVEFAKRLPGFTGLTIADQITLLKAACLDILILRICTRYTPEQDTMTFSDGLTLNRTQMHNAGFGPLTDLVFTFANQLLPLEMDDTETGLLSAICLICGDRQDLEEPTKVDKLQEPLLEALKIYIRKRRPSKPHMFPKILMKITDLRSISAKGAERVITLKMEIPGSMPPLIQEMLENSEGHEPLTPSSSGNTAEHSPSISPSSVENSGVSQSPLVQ
The experiment is described as follows: Holoreceptor transactivation assay, RARβ. It is filed as cell-based. Particulars: CV-1; CV1 cells; relative to all trans retinoic acid; read-out: Transactivation Assay Efficacy (% of RA activity), RARβ. From the text:
(§1) A holoreceptor transactivation assay and a ligand binding assay which measure the ability of the compounds of the invention to bind to the several retinoid receptor subtypes, respectively, are described in published PCT Application No. WO W093/11755 (particularly on pages 30-33 and 37-41) published on Jun. 24, 1993, the specification of which is also incorporated herein by reference. A description of the holoreceptor transactivation assay is also provided below.
(§2) CV1 cells (5,000 cells/well) were transfected with an RAR reporter plasmid MTV-TREp-LUC (50 ng) along with one of the […] expression vectors (10 ng) in an automated 96-well format by the calcium phosphate procedure of Heyman et al. Cell 68, 397-406. (8). For RXRα and RXR.GAMMA. transactivation assays, an RXR-responsive reporter plasmid CRBPII-tk-LUC (50 ng) along with the appropriate RXRexpression vectors (10 ng) was used substantially as described by Heyman et al. above, and Allegretto et al. J. Biol. Chem. 268, 26625-26633. For RXRβ transactivation assays, an RXR-responsive reporter plasmid CPRE-tk-LUC ([…]) along with RXRβ expression vector ([…]) was used as described in above. These reporters contain DRI elements from human CRBPII and certain DRI elements from promoter, respectively. (see Mangelsdorf et al. The Retinoids: Biology, Chemistry and Medicine, pp 319-349, Raven Press Ltd., New York and Heyman et al., cited above) (1, 8). A β-galactosidase (50 ng) expression vector was used as an internal control in the transfections to normalize for variations in transfection efficiency. The cells were transfected in triplicate for 6 hours, followed by incubation with retinoids for 36 hours, and the extracts were assayed for luciferase and β-galactosidase activities. The detailed experimental procedure for holoreceptor transactivations has been described in Heyman et al. above, and Allegretto et al. cited above. The results obtained in this assay in connection with examplary compounds in accordance with the present invention are expressed in EC50 numbers, as they are also in the chimeric receptor transactivation assay. The Heyman et al. Cell 68, 397-406, Allegretto et al. J. Biol. Chem. 268, 26625-26633, and Mangelsdorf et al. The Retinoids: Biology, Chemistry and Medicine, pp 319-349, Raven Press Ltd., New York, are expressly incorporated herein by reference. The results of ligand binding assay are expressed in Kd numbers. (See Cheng et al. Biochemical Pharmacology Vol. 22 pp 3099-3108, expressly incorporated herein by reference.)
For `CC1(C)CCC(C)(C)c2cc(S(=O)(=O)c3ccc(C(=O)O)cc3)ccc21` [Compound 5, 4-(5,6,7,8-tetrahydro-5,5,8,8-tetramethyl-2-naphthylsulfonyl)benzoic acid], the Emax is 4%.

With `Cc1cc2c(cc1S(=O)(=O)c1ccc(C(=O)O)cc1)C(C)(C)CCC2(C)C` [Compound 11, 4-(5,6,7,8-tetrahydro-3,5,5,8,8-pentamethyl-2-naphthylsulfonyl)benzoic acid], the Emax came out at 6%.

`Cc1cc2c(cc1[S+]([O-])c1ccc(C(=O)O)cc1)C(C)(C)CCC2(C)C` (stereo not drawn) [Compound 9, 4-(5,6,7,8-tetrahydro-3,5,5,8,8-pentamethyl-2-naphthylsulfoxy)benzoic acid]: the Emax came out at 4%.

As for `CC1(C)CCC(C)(C)c2cc(Sc3ccc(C(=O)O)cc3)ccc21` [Compound 2], the Emax worked out at 66%.

With `Cc1cc2c(cc1Sc1ncc(C(=O)O)s1)C(C)(C)CCC2(C)C` [Compound 15, 2-(5,6,7,8-Tetrahydro-3,5,5,8,8-pentamethyl-2-naphthylthio)-5-thiazolecarboxylic acid], the Emax stood at 0%.

As to `Cc1cc2c(cc1Sc1ccc(C(=O)O)cc1)C(C)(C)CCC2(C)C` [Compound 7, 4-(5,6,7,8-tetrahydro-3,5,5,8,8-pentamethyl-2-Daphthylthio)benzoic acid], the Emax was determined as 4%.

Turning to `Cc1cc2c(cc1Sc1ccc(C(=O)O)cn1)C(C)(C)CCC2(C)C` [Compound 13], the Emax was 4%.

The target of another experiment is T2, RARγ (Homo sapiens, UniProt P13631).
T2 construct: expressed in transfected cells; host or cells: CV1
T2 sequence (P13631 1-454): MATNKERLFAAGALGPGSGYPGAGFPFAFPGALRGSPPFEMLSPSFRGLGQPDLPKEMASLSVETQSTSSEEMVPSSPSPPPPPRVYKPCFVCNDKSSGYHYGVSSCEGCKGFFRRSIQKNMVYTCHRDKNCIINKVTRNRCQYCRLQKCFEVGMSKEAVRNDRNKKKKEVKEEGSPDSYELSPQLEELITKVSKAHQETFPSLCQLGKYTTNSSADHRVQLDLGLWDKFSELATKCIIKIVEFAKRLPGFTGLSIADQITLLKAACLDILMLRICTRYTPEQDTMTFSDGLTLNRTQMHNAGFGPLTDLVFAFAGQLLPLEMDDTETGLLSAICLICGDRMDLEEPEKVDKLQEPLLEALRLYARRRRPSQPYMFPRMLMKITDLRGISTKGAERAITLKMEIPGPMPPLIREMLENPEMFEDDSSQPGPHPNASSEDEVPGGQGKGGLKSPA
The experiment is described as follows: Holoreceptor transactivation assay, RARγ. The format is cell-based. Particulars: CV-1; CV1 cells; relative to all trans retinoic acid; read-out: Transactivation Assay Efficacy (% of RA activity), RARγ.
Source text: as §1, §2
Turning to `CC1(C)CCC(C)(C)c2cc(S(=O)(=O)c3ccc(C(=O)O)cc3)ccc21` [Compound 5, 4-(5,6,7,8-tetrahydro-5,5,8,8-tetramethyl-2-naphthylsulfonyl)benzoic acid], the Emax stood at 0%.

For `Cc1cc2c(cc1S(=O)(=O)c1ccc(C(=O)O)cc1)C(C)(C)CCC2(C)C` [Compound 11, 4-(5,6,7,8-tetrahydro-3,5,5,8,8-pentamethyl-2-naphthylsulfonyl)benzoic acid], the Emax came out at 0%.

As for `Cc1cc2c(cc1[S+]([O-])c1ccc(C(=O)O)cc1)C(C)(C)CCC2(C)C` (stereo not drawn) [Compound 9, 4-(5,6,7,8-tetrahydro-3,5,5,8,8-pentamethyl-2-naphthylsulfoxy)benzoic acid], the Emax was 3%.

As for `CC1(C)CCC(C)(C)c2cc(Sc3ccc(C(=O)O)cc3)ccc21` [Compound 2], the Emax amounted to 37%.

Turning to `Cc1cc2c(cc1Sc1ncc(C(=O)O)s1)C(C)(C)CCC2(C)C` [Compound 15, 2-(5,6,7,8-Tetrahydro-3,5,5,8,8-pentamethyl-2-naphthylthio)-5-thiazolecarboxylic acid], the Emax was 7%.

As to `Cc1cc2c(cc1Sc1ccc(C(=O)O)cc1)C(C)(C)CCC2(C)C` [Compound 7, 4-(5,6,7,8-tetrahydro-3,5,5,8,8-pentamethyl-2-Daphthylthio)benzoic acid], the Emax came out at 11%.

Regarding `Cc1cc2c(cc1Sc1ccc(C(=O)O)cn1)C(C)(C)CCC2(C)C` [Compound 13], the Emax is 0%.

Another experiment has as its target T3, RARα (Homo sapiens, UniProt P10276).
T3 construct: expressed in transfected cells; host or cells: CV1
T3 sequence (P10276 1-462): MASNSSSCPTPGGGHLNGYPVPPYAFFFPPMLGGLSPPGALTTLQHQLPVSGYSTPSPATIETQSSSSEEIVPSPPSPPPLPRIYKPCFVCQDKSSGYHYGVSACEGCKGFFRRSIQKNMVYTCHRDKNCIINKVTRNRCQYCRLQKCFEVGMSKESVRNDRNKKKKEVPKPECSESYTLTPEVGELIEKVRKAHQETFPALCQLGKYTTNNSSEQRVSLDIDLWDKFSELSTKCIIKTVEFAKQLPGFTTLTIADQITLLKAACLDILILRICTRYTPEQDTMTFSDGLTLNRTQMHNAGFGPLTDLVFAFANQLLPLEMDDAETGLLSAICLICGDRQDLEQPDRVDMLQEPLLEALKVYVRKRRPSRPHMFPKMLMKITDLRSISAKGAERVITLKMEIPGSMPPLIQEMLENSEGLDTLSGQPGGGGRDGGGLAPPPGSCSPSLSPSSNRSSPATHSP
Nature of the experiment: Ligand binding assay, RARα.
Conditions: not given
Source text: as §1, §2
As for `CC1(C)CCC(C)(C)c2cc(S(=O)(=O)c3ccc(C(=O)O)cc3)ccc21` [Compound 5, 4-(5,6,7,8-tetrahydro-5,5,8,8-tetramethyl-2-naphthylsulfonyl)benzoic acid], the Kd is over 1 µM.

For the compound `Cc1cc2c(cc1S(=O)(=O)c1ccc(C(=O)O)cc1)C(C)(C)CCC2(C)C` [Compound 11, 4-(5,6,7,8-tetrahydro-3,5,5,8,8-pentamethyl-2-naphthylsulfonyl)benzoic acid], the Kd was over 1 µM.

On to `Cc1cc2c(cc1[S+]([O-])c1ccc(C(=O)O)cc1)C(C)(C)CCC2(C)C` (stereo not drawn) [Compound 9, 4-(5,6,7,8-tetrahydro-3,5,5,8,8-pentamethyl-2-naphthylsulfoxy)benzoic acid], for which the Kd was over 1 µM.

As to `CC1(C)CCC(C)(C)c2cc(Sc3ccc(C(=O)O)cc3)ccc21` [Compound 2], the Kd was over 1 µM.

With `Cc1cc2c(cc1Sc1ncc(C(=O)O)s1)C(C)(C)CCC2(C)C` [Compound 15, 2-(5,6,7,8-Tetrahydro-3,5,5,8,8-pentamethyl-2-naphthylthio)-5-thiazolecarboxylic acid], the Kd was over 1 µM.

As to `Cc1cc2c(cc1Sc1ccc(C(=O)O)cc1)C(C)(C)CCC2(C)C` [Compound 7, 4-(5,6,7,8-tetrahydro-3,5,5,8,8-pentamethyl-2-Daphthylthio)benzoic acid], the Kd is over 1 µM.

`Cc1cc2c(cc1Sc1ccc(C(=O)O)cn1)C(C)(C)CCC2(C)C` [Compound 13] displayed a Kd of over 10 µM.
